Assay results as given in ChEMBL document CHEMBL1134157, “General synthesis of alpha-substituted 3-bisaryloxy propionic acid derivatives as specific MMP inhibitors” (Bioorg Med Chem Lett, 2001).

How the values were obtained:
[1] = Metabolic bioavailability was determined; assay type: ADME, organism-based; details: in vivo
Collagenase 3 = Collagenase 3 (Homo sapiens, UniProt P45452); assay: Inhibition of Matrix metalloprotease-13
Stromelysin-1 = Stromelysin-1 (Homo sapiens, UniProt P08254); assay: Inhibition of Matrix metalloprotease-3
[2] = molecular target: Matrix metalloproteinase-9 (Homo sapiens, UniProt P14780); assay: Inhibition of Matrix metalloprotease-9
[3] = molecular target: 72 kDa type IV collagenase (Homo sapiens, UniProt P08253); assay: Inhibition of Matrix metalloprotease-2
Interstitial collagenase [4] = molecular target: T1, Interstitial collagenase (Homo sapiens, UniProt P03956); assay: Inhibition of Matrix metalloprotease-1
T1 sequence (P03956 whole entry): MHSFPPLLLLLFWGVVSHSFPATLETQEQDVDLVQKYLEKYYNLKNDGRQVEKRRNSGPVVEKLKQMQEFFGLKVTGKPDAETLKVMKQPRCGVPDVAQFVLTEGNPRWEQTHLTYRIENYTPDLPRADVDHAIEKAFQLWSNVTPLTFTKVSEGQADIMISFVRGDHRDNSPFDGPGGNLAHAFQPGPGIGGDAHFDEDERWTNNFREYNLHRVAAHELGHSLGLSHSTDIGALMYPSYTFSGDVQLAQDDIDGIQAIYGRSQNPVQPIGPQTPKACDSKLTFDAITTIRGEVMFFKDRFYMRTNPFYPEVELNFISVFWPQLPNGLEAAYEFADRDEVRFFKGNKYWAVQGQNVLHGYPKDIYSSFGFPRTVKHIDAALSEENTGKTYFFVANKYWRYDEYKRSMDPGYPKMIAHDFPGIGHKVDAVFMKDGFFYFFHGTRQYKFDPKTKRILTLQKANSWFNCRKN

Homo sapiens = assay: […] absorption in Caco-2 cell line monolayers was determined; assay type: ADME
Interstitial collagenase [5] = molecular target: T1, Interstitial collagenase; assay: Inhibition ofMatrix metalloprotease-1

Sequence of Stromelysin-1 (P08254 whole entry): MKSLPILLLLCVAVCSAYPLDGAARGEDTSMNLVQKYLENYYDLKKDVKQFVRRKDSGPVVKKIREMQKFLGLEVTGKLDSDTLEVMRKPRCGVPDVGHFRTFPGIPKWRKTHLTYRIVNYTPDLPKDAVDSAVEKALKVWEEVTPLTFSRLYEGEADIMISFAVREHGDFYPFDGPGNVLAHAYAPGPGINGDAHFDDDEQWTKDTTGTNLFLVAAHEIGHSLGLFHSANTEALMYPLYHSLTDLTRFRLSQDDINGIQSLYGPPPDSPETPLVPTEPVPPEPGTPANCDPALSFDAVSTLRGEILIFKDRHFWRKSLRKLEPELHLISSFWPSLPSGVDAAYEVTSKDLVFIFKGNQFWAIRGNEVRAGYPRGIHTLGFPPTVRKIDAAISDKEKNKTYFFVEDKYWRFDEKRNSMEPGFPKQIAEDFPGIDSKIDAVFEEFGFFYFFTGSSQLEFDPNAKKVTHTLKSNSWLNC
Sequence of Matrix metalloproteinase-9 (P14780 whole entry): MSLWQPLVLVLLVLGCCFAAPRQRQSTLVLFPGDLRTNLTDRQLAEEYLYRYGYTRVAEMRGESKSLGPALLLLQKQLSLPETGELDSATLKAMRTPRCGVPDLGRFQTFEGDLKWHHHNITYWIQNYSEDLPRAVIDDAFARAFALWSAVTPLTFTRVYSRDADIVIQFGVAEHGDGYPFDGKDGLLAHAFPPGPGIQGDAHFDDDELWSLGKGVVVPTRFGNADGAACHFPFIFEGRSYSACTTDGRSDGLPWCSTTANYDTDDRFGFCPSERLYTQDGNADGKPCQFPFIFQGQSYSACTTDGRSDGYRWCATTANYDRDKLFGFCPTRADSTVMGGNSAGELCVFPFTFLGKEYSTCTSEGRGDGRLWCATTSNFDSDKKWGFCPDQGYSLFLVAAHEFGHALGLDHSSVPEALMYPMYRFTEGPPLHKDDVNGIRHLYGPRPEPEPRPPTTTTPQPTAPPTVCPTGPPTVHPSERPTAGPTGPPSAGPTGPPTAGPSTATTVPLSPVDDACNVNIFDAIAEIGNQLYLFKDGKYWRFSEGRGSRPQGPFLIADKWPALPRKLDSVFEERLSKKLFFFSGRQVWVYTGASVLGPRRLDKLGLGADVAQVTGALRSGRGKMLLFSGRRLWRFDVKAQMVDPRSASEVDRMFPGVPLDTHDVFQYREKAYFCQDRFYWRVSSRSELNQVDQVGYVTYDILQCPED
Sequence of 72 kDa type IV collagenase (P08253 whole entry): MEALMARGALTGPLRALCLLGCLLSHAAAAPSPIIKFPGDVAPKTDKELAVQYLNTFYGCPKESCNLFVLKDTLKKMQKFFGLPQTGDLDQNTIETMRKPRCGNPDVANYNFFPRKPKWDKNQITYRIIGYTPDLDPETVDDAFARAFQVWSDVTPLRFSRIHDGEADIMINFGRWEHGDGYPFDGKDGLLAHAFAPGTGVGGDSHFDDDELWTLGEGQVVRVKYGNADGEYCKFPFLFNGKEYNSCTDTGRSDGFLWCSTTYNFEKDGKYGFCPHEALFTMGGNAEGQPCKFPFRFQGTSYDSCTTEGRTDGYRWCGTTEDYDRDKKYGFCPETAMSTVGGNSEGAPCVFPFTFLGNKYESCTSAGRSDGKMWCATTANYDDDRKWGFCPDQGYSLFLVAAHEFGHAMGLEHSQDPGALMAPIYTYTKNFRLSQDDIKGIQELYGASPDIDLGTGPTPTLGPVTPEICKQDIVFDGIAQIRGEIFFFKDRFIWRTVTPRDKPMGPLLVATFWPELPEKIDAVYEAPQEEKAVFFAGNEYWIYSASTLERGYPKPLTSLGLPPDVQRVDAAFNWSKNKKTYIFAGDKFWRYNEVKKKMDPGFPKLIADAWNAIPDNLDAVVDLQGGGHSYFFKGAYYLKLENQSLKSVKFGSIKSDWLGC

O=C(NO)C(CCn1nnc2ccccc2c1=O)COCCc1ccc(-c2ccc(Cl)cc2)cc1 (stereo not drawn)
MF [1]: 23% | IC50 (Collagenase 3): 67 nM | IC50 (Stromelysin-1): 4.3 nM | IC50 [2]: 3.6 nM | IC50 [3]: 25 nM

O=C(NO)C(CCn1c(=O)[nH]c2ccccc2c1=O)COc1ccc(-c2ccccc2)cc1 (stereo not drawn)
MF [1]: 52% | IC50 (Collagenase 3): 65 nM | IC50 (Stromelysin-1): 69 nM | IC50 [2]: 25 nM | IC50 [3]: 24 nM

O=C(NO)C(CCN1C(=O)c2ccccc2C1=O)COc1ccc(-c2ccccc2)cc1 (stereo not drawn)
IC50 (Collagenase 3): 7 nM | IC50 (Interstitial collagenase [4]): 768 nM | IC50 (Stromelysin-1): 16 nM | IC50 [2]: 5 nM | IC50 [3]: 3 nM

O=C(NO)C(CCn1ncc2ccccc2c1=O)COc1ccc(-c2ccccc2)cc1 (stereo not drawn)
MF [1]: 13% | IC50 (Collagenase 3): 101 nM | IC50 (Interstitial collagenase [4]): > 10000 nM | IC50 (Stromelysin-1): 62 nM | IC50 [2]: 33 nM | IC50 [3]: 6 nM

O=C(NO)C(CCN1C(=O)c2ccccc2S1(=O)=O)COc1ccc(-c2ccccc2)cc1 (stereo not drawn)
MF [1]: 30% | IC50 (Collagenase 3): 42 nM | IC50 (Interstitial collagenase [4]): > 100000 nM | IC50 (Stromelysin-1): 23 nM | IC50 [2]: 16 nM | IC50 [3]: 7 nM

O=C(NO)C(CCn1nnc2ccccc2c1=O)COc1ccc(-c2ccc(Cl)cc2)cc1 (stereo not drawn)
MF [1]: 35% | IC50 (Collagenase 3): 0.016 nM | IC50 (Interstitial collagenase [4]): 74 nM | IC50 (Stromelysin-1): 3.2 nM | IC50 [2]: 0.6 nM | A (Homo sapiens): 75% | IC50 [3]: 0.1 nM

N#Cc1ccc(-c2ccc(OCC(CCn3nnc4ccccc4c3=O)C(=O)NO)cc2)cc1 (stereo not drawn)
MF [1]: 42% | IC50 (Collagenase 3): 0.6 nM | IC50 (Interstitial collagenase [4]): 116 nM | IC50 (Stromelysin-1): 1.1 nM | IC50 [2]: 0.6 nM | A (Homo sapiens): 96% | IC50 [3]: 0.4 nM

O=C(NO)C(CCCN1C(=O)c2ccccc2C1=O)COc1ccc(-c2ccccc2)cc1 (stereo not drawn)
IC50 (Interstitial collagenase [4]): > 1000 nM | IC50 (Stromelysin-1): 313 nM | IC50 [2]: 221 nM | IC50 [3]: 82 nM

CN1C(=O)N(CCC(COc2ccc(-c3ccccc3)cc2)C(=O)NO)C(=O)C1(C)C (stereo not drawn)
MF [1]: 17% | IC50 (Collagenase 3): 84 nM | IC50 (Stromelysin-1): 71 nM | IC50 [2]: 199 nM | IC50 (Interstitial collagenase [5]): > 1000 nM | IC50 [3]: 36 nM

O=C(NO)C(CCn1nnc2ccccc2c1=O)COc1ccc(-c2ccccc2)cc1 (stereo not drawn)
MF [1]: 29% | IC50 (Collagenase 3): 3 nM | IC50 (Interstitial collagenase [4]): 31 nM | IC50 (Stromelysin-1): 5 nM | IC50 [2]: 1 nM | A (Homo sapiens): 80% | IC50 [3]: 0.5 nM

N#Cc1ccc(-c2ccc(OCCC(=O)NO)cc2)cc1
IC50 (Collagenase 3): 64 nM | IC50 (Interstitial collagenase [4]): > 10 nM | IC50 (Stromelysin-1): 47 nM | IC50 [2]: 655 nM | IC50 [3]: 49 nM
